Data from the supplement of paper PMC10307832.

Legend:
Experiment in all cases: relative viability (nuclei count vs DMSO), 5 days (fraction); higher = more cells survive
ABC-1 = tested on: ABC-1
Outline: (§1)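 Lung cancer cell lines in 1536-well plates got either a single drug or a fixed anchor-drug dose together with five library-drug doses (not always all listed) in √10 steps, by pin tool, on the day after seeding. Nuclei were counted after 5 days, and relative viability is the treated-to-vehicle ratio of nuclei counts. Values are medians of duplicate plates.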

CAL-12T = tested on: CAL-12T
Outline: as §1

COR-L 105 = tested on: COR-L 105
Outline: as §1

ChaGo-K-1 = tested on: ChaGo-K-1
Outline: as §1

EMC-BAC-2 = tested on: EMC-BAC-2
Outline: as §1

EPLC-272H = tested on: EPLC-272H
Outline: as §1

HCC-15 = tested on: HCC-15
Outline: as §1

HCC-78 = tested on: HCC-78
Outline: as §1

HOP-62 = tested on: HOP-62
Outline: as §1

LXF-289 = tested on: LXF-289
Outline: as §1

NCI-H1666 = tested on: NCI-H1666
Outline: as §1

NCI-H1755 = tested on: NCI-H1755
Outline: as §1

NCI-H1915 = tested on: NCI-H1915
Outline: as §1

NCI-H1975 = tested on: NCI-H1975
Outline: as §1

NCI-H1993 = tested on: NCI-H1993
Outline: as §1

NCI-H2023 = tested on: NCI-H2023
Outline: as §1

NCI-H2085 = tested on: NCI-H2085
Outline: as §1

NCI-H2126 = tested on: NCI-H2126
Outline: as §1

NCI-H3122 = tested on: NCI-H3122
Outline: as §1

NCI-H322M = tested on: NCI-H322M
Outline: as §1

NCI-H358 = tested on: NCI-H358
Outline: as §1

NCI-H441 = tested on: NCI-H441
Outline: as §1

UMC-11 = tested on: UMC-11
Outline: as §1

Oc1nc(-c2ccc(C(F)(F)F)cc2)nc2c1CSCC2 [XAV939] + C[C@@H](Oc1cc(-c2cnn(C3CCNCC3)c2)cnc1N)c1c(Cl)ccc(F)c1Cl [Crizotinib] (partner 1 µM)
relative viability (ABC-1; first compound 0.08 µM): 1.32 | relative viability (ABC-1; first compound 0.253 µM): 0.905 | relative viability (ABC-1; first compound 0.8 µM): 0.908 | relative viability (ABC-1; first compound 2.53 µM): 0.603 | relative viability (CAL-12T; first compound 0.08 µM): 0.687 | relative viability (CAL-12T; first compound 0.253 µM): 0.449 | relative viability (CAL-12T; first compound 0.8 µM): 0.419 | relative viability (CAL-12T; first compound 2.53 µM): 0.56 | relative viability (COR-L 105; first compound 0.08 µM): 0.821 | relative viability (COR-L 105; first compound 0.253 µM): 0.762 | relative viability (COR-L 105; first compound 0.8 µM): 0.698 | relative viability (COR-L 105; first compound 2.53 µM): 0.621 | relative viability (ChaGo-K-1; first compound 0.08 µM): 1.28 | relative viability (ChaGo-K-1; first compound 0.253 µM): 1.16 | relative viability (ChaGo-K-1; first compound 0.8 µM): 1.07 | relative viability (ChaGo-K-1; first compound 2.53 µM): 0.883 | relative viability (EMC-BAC-2; first compound 0.08 µM): 0.821 | relative viability (EMC-BAC-2; first compound 0.253 µM): 0.63 | relative viability (EMC-BAC-2; first compound 0.8 µM): 0.623 | relative viability (EMC-BAC-2; first compound 2.53 µM): 0.438 | relative viability (EPLC-272H; first compound 0.08 µM): 0.956 | relative viability (EPLC-272H; first compound 0.253 µM): 0.96 | relative viability (EPLC-272H; first compound 0.8 µM): 0.995 | relative viability (EPLC-272H; first compound 2.53 µM): 0.908 | relative viability (HCC-15; first compound 0.08 µM): 0.968 | relative viability (HCC-15; first compound 0.253 µM): 0.746 | relative viability (HCC-15; first compound 0.8 µM): 0.823 | relative viability (HCC-15; first compound 2.53 µM): 0.743 | relative viability (HCC-78; first compound 0.08 µM): 0.342 | relative viability (HCC-78; first compound 0.253 µM): 0.316 | relative viability (HCC-78; first compound 0.8 µM): 0.326 | relative viability (HCC-78; first compound 2.53 µM): 0.299 | relative viability (HOP-62; first compound 0.08 µM): 0.972 | relative viability (HOP-62; first compound 0.253 µM): 0.862 | relative viability (HOP-62; first compound 0.8 µM): 0.906 | relative viability (HOP-62; first compound 2.53 µM): 0.727 | relative viability (LXF-289; first compound 0.08 µM): 0.833 | relative viability (LXF-289; first compound 0.253 µM): 0.754 | relative viability (LXF-289; first compound 0.8 µM): 0.829 | relative viability (LXF-289; first compound 2.53 µM): 0.874 | relative viability (NCI-H1666; first compound 0.08 µM): 0.971 | relative viability (NCI-H1666; first compound 0.253 µM): 0.64 | relative viability (NCI-H1666; first compound 0.8 µM): 0.781 | relative viability (NCI-H1666; first compound 2.53 µM): 0.473 | relative viability (NCI-H1755; first compound 0.08 µM): 0.832 | relative viability (NCI-H1755; first compound 0.253 µM): 0.731 | relative viability (NCI-H1755; first compound 0.8 µM): 0.778 | relative viability (NCI-H1755; first compound 2.53 µM): 0.762 | relative viability (NCI-H1915; first compound 0.08 µM): 0.949 | relative viability (NCI-H1915; first compound 0.253 µM): 0.899 | relative viability (NCI-H1915; first compound 0.8 µM): 0.891 | relative viability (NCI-H1915; first compound 2.53 µM): 0.86 | relative viability (NCI-H1975; first compound 0.08 µM): 1.07 | relative viability (NCI-H1975; first compound 0.253 µM): 0.666 | relative viability (NCI-H1975; first compound 0.8 µM): 0.919 | relative viability (NCI-H1975; first compound 2.53 µM): 0.737 | relative viability (NCI-H1993; first compound 0.8 µM): 0.85 | relative viability (NCI-H1993; first compound 2.53 µM): 0.768 | relative viability (NCI-H2023; first compound 0.08 µM): 0.598 | relative viability (NCI-H2023; first compound 0.253 µM): 0.581 | relative viability (NCI-H2023; first compound 0.8 µM): 0.468 | relative viability (NCI-H2023; first compound 2.53 µM): 0.43 | relative viability (NCI-H2085; first compound 0.08 µM): 0.961 | relative viability (NCI-H2085; first compound 0.253 µM): 0.826 | relative viability (NCI-H2085; first compound 0.8 µM): 0.917 | relative viability (NCI-H2085; first compound 2.53 µM): 0.734 | relative viability (NCI-H2126; first compound 0.08 µM): 1.12 | relative viability (NCI-H2126; first compound 0.253 µM): 0.95 | relative viability (NCI-H2126; first compound 0.8 µM): 0.938 | relative viability (NCI-H2126; first compound 2.53 µM): 0.828 | relative viability (NCI-H3122; first compound 0.08 µM): 0.286 | relative viability (NCI-H3122; first compound 0.253 µM): 0.27 | relative viability (NCI-H3122; first compound 0.8 µM): 0.238 | relative viability (NCI-H3122; first compound 2.53 µM): 0.234 | relative viability (NCI-H322M; first compound 0.08 µM): 1.03 | relative viability (NCI-H322M; first compound 0.253 µM): 0.83 | relative viability (NCI-H322M; first compound 0.8 µM): 0.911 | relative viability (NCI-H322M; first compound 2.53 µM): 0.547 | relative viability (NCI-H358; first compound 0.08 µM): 0.729 | relative viability (NCI-H358; first compound 0.253 µM): 0.45 | relative viability (NCI-H358; first compound 0.8 µM): 0.563 | relative viability (NCI-H358; first compound 2.53 µM): 0.573 | relative viability (NCI-H441; first compound 0.08 µM): 0.986 | relative viability (NCI-H441; first compound 0.253 µM): 0.724 | relative viability (NCI-H441; first compound 0.8 µM): 0.66 | relative viability (NCI-H441; first compound 2.53 µM): 0.779 | relative viability (UMC-11; first compound 0.08 µM): 0.777 | relative viability (UMC-11; first compound 0.8 µM): 0.578 | relative viability (UMC-11; first compound 2.53 µM): 0.414
